Experimental data as given in patent US5391540A, “Substituted pyridine compounds” (Rohm and Haas Company, priority 1993, dated 1995).

Columns and labels:
Test in all cases: Pre-emergent herbicidal activity (Table A)
Format in all cases: in vivo
Barnyardgrass = conditions: Echinochloa crus-galli, pre-emergence, Bygr, 11.2 kg/ha, 10-14 days, read-out: herbicidal rating (% inhibition)
Outline: (§1)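 Percent inhibition per species, scored on a rating scale, after pre-emergent soil incorporation: test compound in acetone or water carrier mixed into cover soil, layered over seeded topsoil or vegetative propagules.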

Canada thistle = conditions: Cirsium arvense, pre-emergence, Cath, 11.2 kg/ha, 10-14 days, read-out: herbicidal rating (% inhibition)
Outline: as §1

Cocklebur = conditions: Xanthium strumarium, pre-emergence, Cobu, 11.2 kg/ha, 10-14 days, read-out: herbicidal rating (% inhibition)
Outline: as §1

Common Lambsquarters = conditions: Chenopodium album, pre-emergence, Colq, 11.2 kg/ha, 10-14 days, read-out: herbicidal rating (% inhibition)
Outline: as §1

Downy Brome = conditions: Bromus tectorum, pre-emergence, Dobr, 11.2 kg/ha, 10-14 days, read-out: herbicidal rating (% inhibition)
Outline: as §1

Morningglory = conditions: Ipomoea, pre-emergence, Mogl, 11.2 kg/ha, 10-14 days, read-out: herbicidal rating (% inhibition)
Outline: as §1

Pennsylvania Smartweed = conditions: pre-emergence, Pesw, 11.2 kg/ha, 10-14 days, read-out: herbicidal rating (% inhibition)
Outline: as §1

Quackgrass = conditions: pre-emergence, Rhqg, 11.2 kg/ha, 10-14 days, read-out: herbicidal rating (% inhibition)
Outline: as §1

Rhizome Johnsongrass = conditions: Sorghum halepense, pre-emergence, Rhjg, 11.2 kg/ha, 10-14 days, read-out: herbicidal rating (% inhibition)
Outline: as §1

Velvetleaf = conditions: Abutilon theophrasti, pre-emergence, Vele, 11.2 kg/ha, 10-14 days, read-out: herbicidal rating (% inhibition)
Outline: as §1

Yellow Nutsedge = conditions: Cyperus, pre-emergence, Yens, 11.2 kg/ha, 10-14 days, read-out: herbicidal rating (% inhibition)
Outline: as §1

| Structure (SMILES) | inhibition at 11200 g/ha (Barnyardgrass) [%] | inhibition at 11200 g/ha (Canada thistle) [%] | inhibition at 11200 g/ha (Cocklebur) [%] | inhibition at 11200 g/ha (Common Lambsquarters) [%] | inhibition at 11200 g/ha (Downy Brome) [%] | inhibition at 11200 g/ha (Morningglory) [%] | inhibition at 11200 g/ha (Pennsylvania Smartweed) [%] | inhibition at 11200 g/ha (Quackgrass) [%] | inhibition at 11200 g/ha (Rhizome Johnsongrass) [%] | inhibition at 11200 g/ha (Velvetleaf) [%] | inhibition at 11200 g/ha (Yellow Nutsedge) [%] |
| --- | --- | --- | --- | --- | --- | --- | --- | --- | --- | --- | --- |
| COC(=O)c1c(OC)nc(C(F)(F)F)c(C(=O)OC)c1C(C)C [Compound 63, 3,5-pyridinedicarboxylic acid, 2-methoxy-4-(1-methylethyl)-6-(trifluoromethyl)-, dimethyl ester] | 75 to 100 | 50 to 74 | 0 to 24 | 75 to 100 | 75 to 100 | 75 to 100 | 75 to 100 | 75 to 100 | 75 to 100 | 75 to 100 | 75 to 100 |
| COC(=O)c1c(OC)nc(C(F)(F)F)c(C2=NCC(C)S2)c1CC(C)C (stereo not drawn) [Compound 64, 3-pyridinecarboxylic acid, 5-(4,5-dihydro-5-methy1-2-thiazolyl)-2-methoxy-4-(2-methylpropyl)-6-(trifluoromethyl)-, methyl ester] | 75 to 100 | 75 to 100 | 75 to 100 | 75 to 100 | 75 to 100 | 75 to 100 | 75 to 100 | 50 to 74 | 0 to 24 | 75 to 100 | 0 to 24 |
| COc1nc(C(F)(F)F)c(C(=O)SC)c(C2CCC2)c1C(=O)SC [Compound 65, 3,5 pyridinedicarbothioic acid, 4-cyclobuty1-2-methoxy-6-(trifluoromethyl)-, S,S-dimethyl ester] | 75 to 100 | 75 to 100 | 25 to 49 | 75 to 100 | 75 to 100 | 75 to 100 | 75 to 100 | 50 to 74 | 0 to 24 | 75 to 100 | 25 to 49 |
| COC(=O)c1c(OC)nc(C(F)(F)F)c(C(=O)N2CCCC2)c1CC(C)C [Compound 66, 3-pyridinecarboxylic acid, 2-methoxy-4-(2-methylpropyl)-5-(1-pyrrolidinylcarbonyl)-6-(trifluoromethyl)-, methyl ester] | 75 to 100 | 75 to 100 | 0 to 24 | 75 to 100 | 75 to 100 | 50 to 74 | 25 to 49 | 75 to 100 | 0 to 24 | 25 to 49 | 0 to 24 |
| COC(=O)c1c(OC)nc(C(F)(F)F)c(C(=O)N2CCCCC2)c1CC(C)C [Compound 67, 3-pyridinecarboxylic acid, 2-methoxy-4-(2-methylpropyl)-5-(1-piperidinylcarbonyl)-6-(trifluoromethyl)-, methyl ester] | 75 to 100 | 75 to 100 | 0 to 24 | 75 to 100 | 75 to 100 | 75 to 100 | 75 to 100 | 75 to 100 | 0 to 24 | 50 to 74 | 0 to 24 |
| COC(=O)c1c(OC)nc(C(F)(F)F)c(C(=O)N2CCC2)c1CC(C)C [Compound 68, 3-pyridinecarboxylic acid, 5-(1-azetidinylcarbonyl)-2-methoxy-4-(2-methylpropyl)-6-(trifluoromethyl)-, methyl ester] | 75 to 100 | 25 to 49 | 0 to 24 | 75 to 100 | 75 to 100 | 50 to 74 | 25 to 49 | 75 to 100 | 25 to 49 | 0 to 24 | 0 to 24 |
| COC(=O)c1c(OC)nc(C(F)(F)F)c(C(=O)N2CCOCC2)c1CC(C)C [Compound 69, 3-pyridinecarboxylic acid, 2-methoxy-4-(2-methylpropyl)-5-(4-morpholinyl)carbony1-6-(trifluoromethyl)-, methyl ester] | 75 to 100 | 50 to 74 | 0 to 24 | 75 to 100 | 25 to 49 | 25 to 49 | 0 to 24 | 75 to 100 | 50 to 74 | 0 to 24 | 0 to 24 |
| COC(=O)c1c(OC)nc(C(F)(F)F)c(C(=O)N2CCSCC2)c1CC(C)C [Compound 70, 3-pyridinecarboxylic acid, 2-methoxy-4-(2-methylpropyl)-5-(4-thiomorpholinylcarbonyl)-6-(trifluoromethyl)-, methyl ester] | 75 to 100 | 50 to 74 | 0 to 24 | 75 to 100 | 50 to 74 | 50 to 74 | 0 to 24 | 50 to 74 | 0 to 24 | 0 to 24 | 25 to 49 |
| COC(=O)c1c(OC)nc(C(F)(F)F)c(C(=O)N2CCSC2)c1CC(C)C [Compound 71, 3-pyridinecarboxylic acid, 2-methoxy-4-(2-methylpropyl)-5-(3-thiazolidinylcarbonyl)-6-(trifluoromethyl)-, methyl ester] | 75 to 100 | 25 to 49 | 0 to 24 | 75 to 100 | 75 to 100 | 50 to 74 | 50 to 74 | 50 to 74 | 0 to 24 | 25 to 49 | 0 to 24 |
| COC(=O)c1c(OC)nc(C(F)(F)F)c(C(=O)N2CC2C)c1CC(C)C (stereo not drawn) [Compound 72] | 75 to 100 | 0 to 24 | 0 to 24 | 75 to 100 | 75 to 100 | 25 to 49 | 25 to 49 | 0 to 24 | 0 to 24 | 25 to 49 | 0 to 24 |
| COC(=O)c1c(OC)nc(C(F)(F)F)c(C(=O)N2CCCCCC2)c1CC(C)C [Compound 73, 3-pyridinecarboxylic acid, 5-[(hexahydro-1H-azepin-1-yl)carbonyl]-2-methoxy-4-(2-methylpropyl)-6-(trifluoromethyl)-, methyl ester] | 75 to 100 | 75 to 100 | 0 to 24 | 75 to 100 | 75 to 100 | 50 to 74 | 75 to 100 | 75 to 100 | 75 to 100 | 25 to 49 | 0 to 24 |
| COC(=O)c1c(OC)nc(C(F)(F)F)c(C2=NC(C)CS2)c1CC(C)C (stereo not drawn) [Compound 74, 3-pyridinecarboxylic acid, 5-(4,5-dihydro-4-methy1-2-thiazolyl)-2-methoxy-4-(2-methylpropyl)-6-(trifluoromethyl)-, methyl ester] | 75 to 100 | 75 to 100 | 75 to 100 | 75 to 100 | 75 to 100 | 75 to 100 | 75 to 100 | 75 to 100 | 75 to 100 | 75 to 100 | 25 to 49 |
